In US10406185B2, “Cancer therapy with a parvovirus combined with a BCL-2 inhibitor” (DEUTSCHES KREBSFORSCHUNGSZENTRUM, priority 2013, dated 2019):

Columns and labels:
[1] = system: human hematologic tumour xenograft; conditions: several human hematologic tumour xenograft models; cited from earlier work
U138 = assay: LDH assay (cell lysis), U138; type: cell-based, human; conditions: U138, H-1PV at MOI 5, 0.5 μM inhibitor, 72 h
Procedure: 72 hours after infection, percentage of cells undergoing lysis was measured by LDH assay.

human platelets = conditions: in contrast to ABT-737; cited from earlier work
[2] = system: peripheral blood mononuclear cells (PBMCs); conditions: non malignant PBMCs; read-out: half maximal effective concentration (EC50); cited from earlier work
human glioma cell lines [3] = assay: Sub-G1 apoptotic population by flow cytometry, eight glioma cell lines; type: cell-based; conditions: H-1PV MOI 0.5-7.5 or 0.25-5 μM ABT-737 alone, 48-96 h
Procedure: The occurrence of DNA fragmentation (sub-G1 cell population) in response to treatment was assessed by propidium iodide staining and flow cytometry in eight human glioma cell lines (a-h). […] Representative histogram plots are shown in the upper panel. […] Columns represent the mean values with relative standard deviation bars (lower panel).
Propidium iodide staining was performed, in order to detect apoptotic cells after treatment. The dye intercalates in the DNA, where it can be measured by flow cytometry. The fluorescence emission is proportional to the DNA content in the cells. Apoptotic cells are characterized by nuclear DNA fragmentation and can be identified by lower fluorescence emission (sub-G1 apoptotic cell population) (Riccardi & Nicoletti, 2006). […]
After 48 (U251, U138, A172, U87, NCH125), 72 (U373) or 96 (U343, NCH37) hours, from infection, supernatant and cells (harvested by trypsinization) were collected and washed with PBS. […] The cell suspension was filtered in a nylon net, and measured on a FACSCalibur (BD Biosciences, San Jose, Calif.). A minimum of 20,000 events were acquired and analyzed with the CellQuest Software (BD Biosciences). Propidium iodide was detected in the FL-2 channel. Untreated cells were used to set the gate for the apoptotic cell fraction, as they show the fluorescence emission of viable non-apoptotic cells. […]

AsPC-1 xenografts = conditions: nude rats, treated animals
Procedure: 5×10^6 AsPC-1 cells were subcutaneously injected in the right flank of 5 week-old female nude rats. After 1 week (when tumour reached the volume of 200-400 mm^3), tumour-bearing animals were randomized in to four groups (n=8). […] Tumour volume was measured with a digital calliper on the days indicated and calculated according to the formula: volume […]=width^2× length/2. Rats were sacrificed when the tumour mass reached 4000 mm^3, in keeping with animal welfare regulations. Data shown represents the average values with standard deviation bars.

human glioma cell lines [4] = conditions: ABT-737 alone at the dosages of Table 1, 72 h, all glioma lines except U87
Procedure: (§1) LDH assays. […] 72 hours after infection, cell lysis was analyzed by LDH assay as described in the materials and methods section. Columns represent the mean values from 3 replicates with relative standard deviation bars.
(§2) H-1PV cytotoxicity was evaluated by quantification of the enzyme lactate dehydrogenase (LDH), which is released from cells due to loss of membrane integrity (lysis). The assay was performed using the CytoTox 96® Non-Radioactive Cytotoxicity Assay Kit according to the manufacturer's instructions (Promega, Heidelberg, Germany).
(§3) Cells were seeded into 96-well plates usually at the density of 4,000 cells/well in 50 μl of their respective culture media supplemented with 10% FBS. […]
(§4) Briefly, 10 μl of 10× lysis buffer [9% (v/v) Triton X-100 (AppliChem, Darmstadt, Germany) in phosphate buffered saline (PBS)] were added per well in three lines of the plate, which served as 100% cell lysis control. […] The absorbance was measured at a wavelength of 492 nm using the Multiscan ELISA Reader. […] For each condition we calculated the average of the three wells incubated (A) or not (B) with lysis buffer. The average value measured in the wells without cells (background) was subtracted from the values obtained in the wells with the cells.

U87 = assay: LDH assay (cell lysis), U87; type: cell-based, human; conditions: U87, ABT-737 alone 5 μM, 72 h
Procedure: as §1, §2, §3, §4

[5] = system: U373, U138, U343 and NCH125 glioma cell lines; assay: Mitochondrial membrane permeabilization (MitoTracker Red), four glioma cell lines; type: cell-based, human; conditions: ABT-737 0.5-1 μM or H-1PV MOI 2.5-7.5 alone, 48-96 h
Procedure: 48-96 hours after infection, cells were stained with Mitotracker Red, harvested and analyzed by flow cytometry. The percentage of cells with MMP, was determined using the CellQuest Software. In the upper panel representative histogram plots are shown for each condition. In the lower panel the results of a typical experiment performed in triplicates are shown. Columns represent the mean values with relative standard deviation bars.
The fluorescent dye MitoTracker® Red CMXRos (Molecular Probes, Invitrogen, Darmstadt, Germany) that stains mitochondria in live cells was used to measure the change in MMP. Due to the formation of pores in the mitochondrial membrane, apoptotic cells cannot retain the dye and show a lower fluorescent signal in flow cytometry analysis.
Glioma cells were seeded in 6-well plates at the density of 2.5×10^5 cells/well in 3 ml of cultural medium with the exception of NCH125 cells that were seeded at the density of 6.25×10^4 cells/well. […] Cell suspension was analyzed with a FACSCalibur (BD Biosciences). At least 10,000 events were acquired and analyzed with the CellQuest Software (BD Biosciences). The average of cells undergoing MMP was calculated from three replicates.

[6] = system: small-cell lung carcinoma; conditions: small-cell lung carcinoma xenograft mouse models; cited from earlier work

| SMILES | tumor growth [1] | increase of H-1PV cytotoxicity in comparison to virus alone (U138) [fold] | effect on human platelets (human platelets) | EC50 [2] [nM] | induction of apoptosis (sub-G1 population), single treatments (human glioma cell lines [3]) | loss of weight or other adverse side effects (AsPC-1 xenografts) | cytotoxicity of ABT-737 alone (human glioma cell lines [4]) | cytotoxicity of ABT-737 alone (U87) | effect on MMP, single treatments [5] | tumour regression [6] |
| --- | --- | --- | --- | --- | --- | --- | --- | --- | --- | --- |
| CC1(C)CCC(CN2CCN(c3ccc(C(=O)NS(=O)(=O)c4ccc(NCC5CCOCC5)c([N+](=O)[O-])c4)c(Oc4cnc5[nH]ccc5c4)c3)CC2)=C(c2ccc(Cl)cc2)C1 [ABT-199] | inhibit tumor growth | 1.7 | spares human platelets |  |  |  |  |  |  |  |
| CN(C)CC[C@H](CSc1ccccc1)Nc1ccc(S(=O)(=O)NC(=O)c2ccc(N3CCN(Cc4ccccc4-c4ccc(Cl)cc4)CC3)cc2)cc1[N+](=O)[O-] [ABT-737] |  | 3.8 |  | > 1000 | unable to induce apoptosis efficiently | No loss of weight or other adverse side effects | no apparent cytotoxicity | modestcytotoxic effects | almost no effect on the MMP | complete regression |
